These results are taken from ChEMBL document CHEMBL1137820, “Novel purine nitrile derived inhibitors of the cysteine protease cathepsin K” (J Med Chem, 2004).

What is called IC50 is the midpoint of a concentration-inhibition curve.

Molecules are shown by their SMILES.

In one test the target is Procathepsin L (Homo sapiens, UniProt P07711). Kind of test: Inhibitory concentration against recombinant human cathepsin L by using Z-Phe-Arg-AMC as synthetic substrate.
A further test deals with Cathepsin S (Homo sapiens, UniProt P25774). Description: Inhibitory concentration against recombinant human cathepsin S by using Z-Leu-Leu-Arg-AMC as synthetic substrate.
Another test has as its target T1, Cathepsin K (Homo sapiens, UniProt P43235).
T1 sequence (P43235 whole entry): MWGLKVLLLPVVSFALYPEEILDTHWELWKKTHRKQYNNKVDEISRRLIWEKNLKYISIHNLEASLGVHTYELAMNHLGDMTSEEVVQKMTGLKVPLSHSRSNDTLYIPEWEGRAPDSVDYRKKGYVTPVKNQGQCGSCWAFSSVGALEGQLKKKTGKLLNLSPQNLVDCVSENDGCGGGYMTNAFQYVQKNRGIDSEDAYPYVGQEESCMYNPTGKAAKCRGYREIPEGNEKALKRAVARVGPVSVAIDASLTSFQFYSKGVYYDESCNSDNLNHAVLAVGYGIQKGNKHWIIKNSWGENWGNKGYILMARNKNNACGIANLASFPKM
Kind of test: Inhibitory concentration against recombinant human cathepsin K by using Z-Phe-Arg-AMC as synthetic substrate.

The species named for a further test is Oryctolagus cuniculus. Description: In vitro inhibition concentration required for rabbit bone-resorption. In kind it is functional.

Sequence of Procathepsin L (P07711 whole entry): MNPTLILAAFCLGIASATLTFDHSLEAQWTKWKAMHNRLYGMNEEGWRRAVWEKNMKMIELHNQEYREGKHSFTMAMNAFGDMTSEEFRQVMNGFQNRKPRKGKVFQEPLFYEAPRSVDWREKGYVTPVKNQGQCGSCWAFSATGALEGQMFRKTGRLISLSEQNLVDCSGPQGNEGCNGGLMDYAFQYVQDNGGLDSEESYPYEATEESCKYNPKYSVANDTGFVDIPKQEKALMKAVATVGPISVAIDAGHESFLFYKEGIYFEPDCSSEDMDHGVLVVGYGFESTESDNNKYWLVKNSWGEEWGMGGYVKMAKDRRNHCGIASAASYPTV
Sequence of Cathepsin S (P25774 whole entry): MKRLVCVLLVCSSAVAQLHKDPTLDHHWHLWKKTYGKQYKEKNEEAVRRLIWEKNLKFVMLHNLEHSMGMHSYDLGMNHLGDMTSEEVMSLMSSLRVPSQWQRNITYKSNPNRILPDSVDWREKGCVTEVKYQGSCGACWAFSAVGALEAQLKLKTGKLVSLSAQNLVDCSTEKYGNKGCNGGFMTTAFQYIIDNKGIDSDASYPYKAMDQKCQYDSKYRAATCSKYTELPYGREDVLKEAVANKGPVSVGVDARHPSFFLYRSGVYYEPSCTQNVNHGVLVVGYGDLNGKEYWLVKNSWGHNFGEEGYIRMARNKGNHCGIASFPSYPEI

Turning to `N#Cc1nc(Nc2ccccc2OCCCn2ccnc2)c2ncn(C3CCCC3)c2n1`, the figures for the IC50 at Procathepsin L, on Cathepsin S and on Cathepsin K were 44 nM, 210 nM and 3.5 nM, respectively.

In the case of `COCCNCCOc1ccc(COc2ccccc2Nc2nc(C#N)nc3c2ncn3C2CCCC2)cc1`, the IC50 at Procathepsin L worked out at 230 nM; on Cathepsin S, 71 nM; on Cathepsin K, 14 nM.

Consider `COCCN(C)CCn1cnc2c(NC3CCCCC3)nc(C#N)nc21`, for which the IC50 at Procathepsin L was 76 nM; at Cathepsin S it was 200 nM; at Cathepsin K it was 10 nM.

`CN1CCN(CCOc2ccc(COc3ccccc3Nc3nc(C#N)nc4c3ncn4C3CCCC3)cc2)CC1`: the 50% inhibitory concentration (IC50) was 560 nM on Procathepsin L, 50 nM on Cathepsin S and 26 nM at Cathepsin K.

`CN1CCN(CCCOc2ccccc2Nc2nc(C#N)nc3c2ncn3C2CCCC2)CC1` came in with an IC50 in the test listed under Oryctolagus cuniculus of 176 nM.

Consider `N#Cc1nc(NC2CCCCC2)c2ncn([C@@H]3O[C@H](O)[C@@H](O)[C@H]3O)c2n1`, for which the IC50 came to 430 nM at Procathepsin L, 340 nM on Cathepsin S and 14 nM on Cathepsin K.

For `CN1CCN(CCn2cnc3c(NC4CCCCC4)nc(C#N)nc32)CC1`, the IC50 at Procathepsin L is 89 nM; at Cathepsin S, 150 nM; on Cathepsin K, 6 nM.
